Assays:
CKIT = test: cKIT washout assay in GIST882 cells (C-kit phosphorylation, western blot); type: cell-based
Procedure: GIST882 cells (See, Bauer et al., Cancer Research, 66(18):9153-9161 (2006)) were seeded in a 6 well plate at a density of 8×10^5 cells/well in complete media. The next day cells were treated with 1 uM compound diluted in complete media for 90 minutes. After 90 minutes, the media was removed and cells were washed with compound-free media. Cells were washed every 2 hours and resuspended in fresh compound-free media. Cells were collected at specified time points, lysed in Cell Extraction Buffer (Invitrogen FNN0011) supplemented with Roche complete protease inhibitor tablets (Roche 11697498001) and phosphatase inhibitors (Roche 04 906 837 001) and lysates were sheared by passing through a 28.5 gauge syringe 10 times each. Protein concentrations were measured and 10 ug total protein lysate was loaded in each lane. C-kit phosphorylation was assayed by western blot with pTyr (4G10) antibody and total kit antibody from Cell Signaling Technology.
Sorafenib and XVIII-11 were tested for cellular activity in a GIST882 cell line at 1 micromolar. The results are depicted in FIGS. 2a and 2b where it is shown that XVIII-11 maintained c-KIT enzyme inhibition in […] cells after “washout” for at least 8 hours. […] In order to understand whether there was a prolonged inhibition with the irreversible inhibitor the cells were washed free of compound. For the reversible inhibitor, Sorafenib, the inhibitory activity of cKIT and downstream signaling was overcome whereas the irreversible inhibition of XVIII-11 persisted for at least 8 hours.

ERK = test: cKIT washout assay, downstream signaling (ERK phosphorylation); type: cell-based; conditions: GIST882 cell line, 1 micromolar, 90 minutes
Procedure: The next day cells were treated with 1 uM compound diluted in complete media for 90 minutes. After 90 minutes, the media was removed and cells were washed with compound-free media. Cells were washed every 2 hours and resuspended in fresh compound-free media. […] Protein concentrations were measured and 10 ug total protein lysate was loaded in each lane. C-kit phosphorylation was assayed by western blot with pTyr (4G10) antibody and total kit antibody from Cell Signaling Technology.
Sorafenib and XVIII-11 were tested for cellular activity in a GIST882 cell line at 1 micromolar. The results are depicted in FIGS. 2a and 2b where it is shown that XVIII-11 maintained c-KIT enzyme inhibition in […] cells after “washout” for at least 8 hours. […] In order to understand whether there was a prolonged inhibition with the irreversible inhibitor the cells were washed free of compound.

FAK = molecular target: T1, FAK (Homo sapiens, UniProt Q05397); test: FAK biochemical assay (OMNIA kinase assay, pre-activated FAK); conditions: FAK=15 nM, ATP=100 μM, 30 min pre-incubation
T1 construct: purchased Invitrogen (Madison, Wis.) M4446
Procedure: Activities of FAK inhibitors were assessed in an OMNIA® kinase assay (Invitrogen, Carlsbad, Calif.) using pre-activated FAK enzyme. Briefly, a 10× stock of pre-activated FAK enzyme (M4446) from Invitrogen (Madison, Wis.), 1.13×ATP (AS001A) and Y3-Sox conjugated peptide substrate (YP003A) were prepared in 1× kinase reaction buffer consisting of 20 mM Tris, pH 7.5, 5 mM MgCl2, 1 mM EGTA, 5 mM β-glycerophosphate, 5% glycerol (10× stock, KB002A) and 0.2 mM DTT (DS001A). 5 μL of enzyme were pre-incubated in a Corning (#3574) 384-well, white, non-binding surface microtiter plate (Corning, N.Y.) for 30 min at 27° C. with a 0.5 μL volume of 50% DMSO and serially diluted compounds prepared in 50% DMSO. Kinase reactions were started with the addition of 45 μL of ATP/Y3-Sox peptide substrate mix and monitored every 30-90 seconds for 60 minutes at λex360/λem485 in a Synergy^4 plate reader from BioTek (Winooski, Vt.). […] Initial velocity (0 minutes to ˜30 minutes) from each reaction was determined from the slope of a plot of relative fluorescence units vs time (minutes) and then plotted against inhibitor concentration to estimate IC50 from log [Inhibitor] vs Response, Variable Slope model in GraphPad Prism from GraphPad Software (San Diego, Calif.). […]

FAK (PTK2) = FAK (PTK2) (Homo sapiens, UniProt Q05397); test: Mass spectral analysis of intact FAK after incubation with compound; type: binding; conditions: 1 hr, 10× excess of compound to protein; for modification of FAK (PTK2) by compound, mass spec: intact protein MALDI
Procedure: Intact FAK (PTK2) was incubated for 1 hr at a 10× fold access of compound IV-29 to protein. 3 ul aliquots of the samples were diluted with 10 ul of 0.1% TFA prior to micro C4 ZipTipping directly onto the MALDI target using Sinapinic acid as the desorption matrix (10 mg/ml in 0.1% TFA:Acetonitrile 50:50). Mass spec analysis was run on intact FAK (PTK2) protein (m/z 146,672 Da), and on FAK that was incubated with compound IV-29 (mw=669.2).

FAK (PTK2), sequence (Q05397 whole entry): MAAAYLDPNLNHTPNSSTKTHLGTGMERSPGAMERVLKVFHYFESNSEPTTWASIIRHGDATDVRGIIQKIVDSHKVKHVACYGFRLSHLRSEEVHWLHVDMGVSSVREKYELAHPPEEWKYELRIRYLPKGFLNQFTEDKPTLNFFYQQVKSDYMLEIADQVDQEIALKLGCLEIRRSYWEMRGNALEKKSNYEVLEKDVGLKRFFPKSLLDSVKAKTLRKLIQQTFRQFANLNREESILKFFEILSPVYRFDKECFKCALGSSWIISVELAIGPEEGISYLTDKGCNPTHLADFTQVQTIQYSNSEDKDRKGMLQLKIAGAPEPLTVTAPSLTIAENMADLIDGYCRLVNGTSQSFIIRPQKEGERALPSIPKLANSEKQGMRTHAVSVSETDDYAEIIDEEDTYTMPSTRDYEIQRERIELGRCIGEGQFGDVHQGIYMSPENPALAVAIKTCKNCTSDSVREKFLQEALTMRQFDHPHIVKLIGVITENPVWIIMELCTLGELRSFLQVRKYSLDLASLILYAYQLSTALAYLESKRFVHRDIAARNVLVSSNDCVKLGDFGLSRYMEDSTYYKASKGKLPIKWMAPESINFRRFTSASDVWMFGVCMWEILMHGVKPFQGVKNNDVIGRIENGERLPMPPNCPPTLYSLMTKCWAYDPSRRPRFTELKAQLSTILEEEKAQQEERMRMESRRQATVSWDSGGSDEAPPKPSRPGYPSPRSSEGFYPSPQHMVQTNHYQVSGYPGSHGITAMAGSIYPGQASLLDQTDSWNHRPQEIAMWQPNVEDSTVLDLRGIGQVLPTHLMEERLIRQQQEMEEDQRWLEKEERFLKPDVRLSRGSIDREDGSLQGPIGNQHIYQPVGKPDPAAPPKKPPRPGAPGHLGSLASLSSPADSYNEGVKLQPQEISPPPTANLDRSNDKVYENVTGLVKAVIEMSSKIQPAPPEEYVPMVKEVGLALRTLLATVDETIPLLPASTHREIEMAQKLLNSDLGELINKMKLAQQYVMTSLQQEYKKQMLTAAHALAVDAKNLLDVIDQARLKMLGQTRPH
T1 sequence (Q05397 whole entry): as above

| Compound | inhibitory activity of cKIT and downstream signaling after washout (CKIT; 1 uM for 90 minutes, then washed free of compound) | inhibition of cKIT autophosphorylation (CKIT; GIST882 cell line, 1 micromolar, 90 minutes) | inhibition of downstream signaling of ERK (ERK) | IC50 (FAK) | modification of FAK (PTK2) by compound, mass spec (FAK (PTK2)) | positive shift of centroid mass of FAK (FAK (PTK2)) |
| --- | --- | --- | --- | --- | --- | --- |
| CNC(=O)c1cc(Oc2ccc(NC(=O)Nc3ccc(Cl)c(C(F)(F)F)c3)cc2)ccn1 [Sorafenib, sorafenib] | overcome | inhibited cKIT autophosphorylation | inhibited | – | – | – |
| C=CC(=O)N1CCC2(CCCN(c3ccc(Nc4ncc(Cl)c(Nc5ccccc5C(=O)NC)n4)c(OC)c3)C2)CC1 [IV-30, 2-{2-[4-(9-Acryloyl-2,9-diaza-spiro[5.5]undec-2-yl)-2-methoxy-phenylamino]-5-chloro-pyrimidin-4-ylamino}-N-methyl-benzamide] | – | – | – | 5.89 nM | did not modify FAK | – |
| C=CC(=O)Nc1ccc(C(=O)NC2(C)CCN(c3ccc(Nc4ncc(Cl)c(Nc5ccccc5C(=O)NC)n4)c(OC)c3)CC2)cc1 [IV-29, 2-(2-(4-(4-(4-acrylamidobenzamido)-4-methylpiperidin-1-yl)-2-methoxyphenylamino)-5-chloropyrimidin-4-ylamino)-N-methylbenzamide] | – | – | – | 5.24 nM | almost complete modification of FAK | about 365 Da |
